Data taken from patent publication US11412737B2, “Mixtures of beflubutamid or optically enriched forms thereof with a second herbicide” (FMC Corporation, priority 2016, dated 2022).

Tests used:
Assay in all cases: pre-emergence test, weed control
Italian ryegrass (LOLMU) = assay type: in vivo, Lolium perenne. multiflorum; details: pre-emergent, 28 DAT, (+)-BFL >95% e.e.; rate g ai/ha by row: r6 62.5, r7 125, r8 62.5, r9 125, r10 222, r11 445, r12 22.5, r13 45, r14 62.5+62.5, r15 125+62.5, r16 62.5+125, r17 125+125, r18 62.5+222, r19 125+222, r20 62.5+445, r21 125+445, r22 62.5+22.5, r23 125+22.5, r24 62.5+45, r25 125+45
Experimental: (§1) Test compositions containing the test compounds were diluted with water to provide the appropriate test rate concentrations.
(§2) For pre-emergence testing, four disposable fiber flats (6 inch by 10 inch) for each rate of application of each herbicide solution were filled with top soil, to which seeds of each species were planted in furrows made by a template pressed on the top of the soil. The furrows were covered with soil after planting the seed and were watered well before application of the test compounds.
(§3) Fiber flats designated for treatment were placed in a spray chamber having a static platform and a movable sprayer and the height of the spray nozzle was 10.5 inches above the soil level. Once the sprayer was calibrated using water for spray volume of 30 gallons per acre, flats were sprayed with sprayer at a speed to receive a coverage equivalent of 30 gallons per acre. […]
(§4) The control of weeds was evaluated in each experimental test at 21 for wheat and 28 days after treatment (DAT) for all species. Data were analyzed using Minitab software at 95% confidence interval. […] Percent control was determined by a method similar to the 0 to 100 rating system disclosed in “Research Methods in Weed Science,” 2nd ed., B. Truelove, Ed.; Southern Weed Science Society; Auburn University, Auburn, Ala., 1977. […]

[1] = system: Common lambsquarters (CHEAL); assay type: in vivo, Chenopodium album; details: pre-emergent
Experimental: as §1, §2
(§5) Fiber flats designated for treatment were placed in a spray chamber having a static platform and a movable sprayer and the height of the spray nozzle was 10.5 inches above the soil level. Once the sprayer was calibrated using water for spray volume of 30 gallons per acre, flats were sprayed with sprayer at a speed to receive a coverage equivalent of 30 gallons per acre. The application rates are those shown in the Tables below for the individual herbicidal solutions and the herbicide compositions of this invention. The pre-emergence flats were immediately placed in the greenhouse and watered lightly after treatment. Thereafter they were regularly watered and fertilized for the duration of the test.
(§6) The control of weeds was evaluated in each experimental test at 21 for wheat and 28 days after treatment (DAT) for all species. Data were analyzed using Minitab software at 95% confidence interval. The results, shown as an average of the replications, were compared with results observed in untreated control flats in the same tests. Percent control was determined by a method similar to the 0 to 100 rating system disclosed in “Research Methods in Weed Science,” 2nd ed., B. Truelove, Ed.; Southern Weed Science Society; Auburn University, Auburn, Ala., 1977. The rating system is as follows in Table 1.

Green foxtail (SETVI) = assay type: in vivo, Setaria viridis; details: pre-emergent, 28 DAT, (+)-BFL >95% e.e., rate g ai/ha by row: r6 62.5, r7 125, r8 62.5, r9 125, r10 222, r11 445, r12 22.5, r13 45, r14 62.5+62.5, r15 125+62.5, r16 62.5+125, r17 125+125, r18 62.5+222, r19 125+222, r20 62.5+445, r21 125+445, r22 62.5+22.5, r23 125+22.5, r24 62.5+45, r25 125+45
Experimental: as §1, §2, §5, §6

Yellow foxtail (SETLU) = assay type: in vivo; details: pre-emergent, 28 DAT, (+)-BFL >95% e.e., rate g ai/ha by row: r6 62.5, r7 125, r8 62.5, r9 125, r10 222, r11 445, r12 22.5, r13 45, r14 62.5+62.5, r15 125+62.5, r16 62.5+125, r17 125+125, r18 62.5+222, r19 125+222, r20 62.5+445, r21 125+445, r22 62.5+22.5, r23 125+22.5, r24 62.5+45, r25 125+45
Experimental: as §1, §2, §5, §6

Blackgrass (ALOMY) = assay type: in vivo; details: pre-emergent, 28 DAT, (+)-BFL >95% e.e., rate g ai/ha by row: r6 62.5, r7 125, r8 62.5, r9 125, r10 222, r11 445, r12 22.5, r13 45, r14 62.5+62.5, r15 125+62.5, r16 62.5+125, r17 125+125, r18 62.5+222, r19 125+222, r20 62.5+445, r21 125+445, r22 62.5+22.5, r23 125+22.5, r24 62.5+45, r25 125+45
Experimental: as §1, §2, §5, §6

Wild oat (AVEFA) = assay type: in vivo, Avena fatua; details: pre-emergent, 28 DAT, (+)-BFL >95% e.e., rate g ai/ha by row: r6 62.5, r7 125, r8 62.5, r9 125, r10 222, r11 445, r12 22.5, r13 45, r14 62.5+62.5, r15 125+62.5, r16 62.5+125, r17 125+125, r18 62.5+222, r19 125+222, r20 62.5+445, r21 125+445, r22 62.5+22.5, r23 125+22.5, r24 62.5+45, r25 125+45
Experimental: as §1, §2, §5, §6

Barnyardgrass (ECHCG) = assay type: in vivo, Echinochloa crus-galli; details: pre-emergent, 28 DAT; rate g ai/ha by row: r5 94, r6 125, r7 250, r8 62.5, r9 125, r10 250, r11 94+62.5, r12 125+62.5, r13 94+125, r14 125+125, r15 94+250, r16 125+250, r17 78.8, r18 157.5, r19 315, r20 94+78.8, r21 125+78.8, r22 94+157.5, r23 125+157.5, r24 94+315, r25 125+315
Experimental: as §1, §2, §3, §4

Goosegrass (ELEIN) = assay type: in vivo; details: pre-emergent, 28 DAT; rate g ai/ha by row: r5 94, r6 125, r7 250, r8 62.5, r9 125, r10 250, r11 94+62.5, r12 125+62.5, r13 94+125, r14 125+125, r15 94+250, r16 125+250, r17 78.8, r18 157.5, r19 315, r20 94+78.8, r21 125+78.8, r22 94+157.5, r23 125+157.5, r24 94+315, r25 125+315
Experimental: as §1, §2, §5, §6

Large crabgrass (DIGSA) = assay type: in vivo; details: pre-emergent, 28 DAT, rate g ai/ha by row: r4 94, r5 50, r6 100, r7 52.5, r8 70, r9 94+52.5, r10 94+70, r11 50+52.5, r12 50+70, r13 100+52.5, r14 100+70
Experimental: as §1, §2, §5, §6

CC[C@@H](Oc1ccc(F)c(C(F)(F)F)c1)C(=O)NCc1ccccc1 [(+)-BFL]
percentage of weed control, LOLMU (Italian ryegrass (LOLMU)): 1% | weed control of common lambsquarters (CHEAL) ([1]; applied alone, 28 DAT (Table 17)): low level weed control | percentage of weed control, CHEAL ([1]; 28 DAT, (+)-BFL >95% e.e., rate g ai/ha by row: r6 62.5, r7 125, r8 62.5, r9 125, r10 222, r11 445, r12 22.5, r13 45, r14 62.5+62.5, r15 125+62.5, r16 62.5+125, r17 125+125, r18 62.5+222, r19 125+222, r20 62.5+445, r21 125+445, r22 62.5+22.5, r23 125+22.5, r24 62.5+45, r25 125+45): 37% | percentage of weed control, SETVI (Green foxtail (SETVI); 62.5 g ai/ha): 7% | percentage of weed control, SETVI (Green foxtail (SETVI); 125 g ai/ha): 8% | percentage of weed control, SETLU (Yellow foxtail (SETLU); 62.5 g ai/ha): 0% | percentage of weed control, SETLU (Yellow foxtail (SETLU); 125 g ai/ha): 5% | percentage of weed control, ALOMY (Blackgrass (ALOMY); 62.5 g ai/ha): 2% | percentage of weed control, ALOMY (Blackgrass (ALOMY); 125 g ai/ha): 5% | percentage of weed control, AVEFA (Wild oat (AVEFA); 62.5 g ai/ha): 0% | percentage of weed control, AVEFA (Wild oat (AVEFA); 125 g ai/ha): 1%

COC[C@H](C)N(C(=O)CCl)c1c(C)csc1C [Dimethanamid-P]
percentage of weed control, Barnyardgrass ECHCG (Barnyardgrass (ECHCG)): 100% | percentage of weed control, Goosegrass ELEIN (Goosegrass (ELEIN)): 96% | percentage of weed control, DIGSA (Large crabgrass (DIGSA); 52.5 g ai/ha): 20% | percentage of weed control, DIGSA (Large crabgrass (DIGSA); 70 g ai/ha): 25%
